Test results: the supplement of paper PMC8633005

Key:
Assay in all cases: drug sensitivity score (DSS) (DSS (unitless, 0-50 scale)); higher = more sensitive (stronger viability inhibition); extreme values may be limits of the assay
Conditions in all cases: 72 h; culture: 2D
[1] = system: FM-MEL-2
Method in brief: (§1)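 A 527-compound oncology library was screened in 384-well plates against melanoma cell lines and patient-derived melanoma cultures grown in 2D, the cultures at 1000–1500 cells per well. Each compound, in DMSO or water, was applied at five concentrations over a 10,000-fold range and incubated for 72 h at 37 °C before CellTiter-Glo luminescence readout of viability. A drug sensitivity score, a modified area-under-curve measure, was calculated from curves fitted in the in-house Breeze software.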

[2] = system: WM165
Method in brief: as §1

[3] = system: SK-MEL-2
Method in brief: as §1

[4] = system: SK-MEL-28
Method in brief: as §1

[5] = system: FM-MEL-6
Method in brief: as §1

[6] = system: FM-MEL-3
Method in brief: as §1

[7] = system: Bowes
Method in brief: as §1

[8] = system: WM852
Method in brief: as §1

Structure (SMILES)	drug sensitivity score [1]	drug sensitivity score [2]	drug sensitivity score [3]	drug sensitivity score [4]	drug sensitivity score [5]	drug sensitivity score [6]	drug sensitivity score [7]	drug sensitivity score [8]
Nc1ncnc2c1c(COc1cccc(Cl)c1)nn2C1CCOCC1	0.2	0	0	0	0.7	0	0	0.8
Cc1nc(=O)c2cc(CN(C)c3ccc(C(=O)N[C@@H](CCC(=O)O)C(=O)O)s3)ccc2[nH]1 [Raltitrexed]	0	8.4	0	3.9	0	0	23.9	0
Cn1cc(CNCC2CCN(c3ncc(C(=O)NO)cn3)CC2)c2ccccc21 [Quisinostat]	13.4	16.3	13.5	10.7	10.6	11.3	9	5.7
COc1cc(Nc2c(C#N)cnc3cc(OCCCN4CCN(C)CC4)c(OC)cc23)c(Cl)cc1Cl [Bosutinib]	5	8.4	4.7	8.7	4.9	3.2	8.2	7.6
Cc1nn(C)c(COc2ccc(N3CCN(S(=O)(=O)N(C)C)CC3)cc2)c1-c1cccc2c(CCCOc3cccc4ccccc34)c(C(=O)O)n(CCN3CCOCC3)c12	8	6.4	4.6	5.6	7.8	7.8	6.7	5.4
CON(C)C(=O)N1N=C(c2cc(F)ccc2F)S[C@@]1(CCCN)c1ccccc1 [Filanesib]	4.7	17.4	16.5	4.5	11.3	10	12.5	23.3
N#Cc1ccnc(N2C(=O)CC[C@H]2C(=O)N(c2cncc(F)c2)[C@H](C(=O)NC2CC(F)(F)C2)c2ccccc2Cl)c1 [Ivosidenib]	0	0	0	0	0.3	0	0	0
NC(=O)/C(=C/n1cnc(-c2cc(C(F)(F)F)cc(C(F)(F)F)c2)n1)c1cncnc1 [Eltanexor]	9.5	19.3	15.2	14	11.8	18.4	14.8	11.2
CNC(=O)c1ccccc1Nc1nc(Nc2ccc3c(c2OC)CCC[C@H](N2CCN(CCO)CC2)C3)ncc1Cl	7.2	9.2	4.5	7.9	7.6	8.6	8.2	7.7
CC(=O)c1cnc2ccc(-c3cc(Cl)c(O)c(Cl)c3)nc2c1N[C@H]1CC[C@H](CN(C)C)CC1 [OTS167]	9.5	17.4	11.4	14.3	8	19	15.4	10.5
COc1cc(Nc2ncc(F)c(Nc3ccc4c(n3)NC(=O)C(C)(C)O4)n2)cc(OC)c1OC [Tamatinib]	5.5	0.9	0	0	0	2.7	1.3	0
O=c1[nH]c(=O)n([C@H]2C[C@H](O)[C@@H](CO)O2)cc1C(F)(F)F [Trifluridine]	0	3.5	0	2.7	0.8	0.1	0	0
O=C(Nc1cccc(Nc2ncc(Br)c(NCCc3cnc[nH]3)n2)c1)N1CCCC1 [BX-912]	5.9	8.2	0	1.9	0.5	0.9	5.6	1.9
N#Cc1ccc(C(c2ccc(C#N)cc2)n2cncn2)cc1 [Letrozole]	0	0	0	0	0	0	0	0
C=C(c1ccc(C(=O)O)cc1)c1cc2c(cc1C)C(C)(C)CCC2(C)C [Bexarotene]	1.3	0	0	2.3	0.4	2.9	0	0
COc1cc(NS(C)(=O)=O)ccc1Nc1c2ccccc2nc2ccccc12 [Amsacrine]	4.9	16.9	2.8	6.4	5.5	5.8	0.5	0
Cc1ccc(-n2nc(C(C)(C)C)cc2NC(=O)Nc2ccc(OCCN3CCOCC3)c3ccccc23)cc1 [Doramapimod]	1.4	3.4	0	0	0.8	1.7	0	0
CC[C@@H]1C(=O)N(C)c2cnc(Nc3ccc(C(=O)N[C@H]4CC[C@H](N5CCN(CC6CC6)CC5)CC4)cc3OC)nc2N1C(C)C [Volasertib]	2.6	13.3	8.1	3.1	3.7	6.5	17.5	14.9
O=C(NC1CCNCC1)c1n[nH]cc1NC(=O)c1c(Cl)cccc1Cl [AT7519]	7.7	20	15.1	10.5	19.3	12.8	21.4	15.3
CCN(CC)CCNC(=O)c1c(C)[nH]c(/C=C2\C(=O)Nc3ccc(-c4csc(-c5ccccc5)n4)cc32)c1C [Amcasertib]	7.4	4.5	0	1.9	8.8	4.1	0.2	8.2

Structure (SMILES)	drug sensitivity score [1]	drug sensitivity score [2]	drug sensitivity score [3]	drug sensitivity score [4]	drug sensitivity score [5]	drug sensitivity score [6]	drug sensitivity score [7]	drug sensitivity score [8]
CNC(=O)c1nn(C)c2c1C(C)(C)Cc1cnc(Nc3ccc(N4CCN(C)CC4)cc3)nc1-2 [Milciclib]	6.5	12	7	8.7	9	7.5	11	5.1
C#Cc1cccc(Nc2ncnc3cc4c(cc23)OCCOCCOCCO4)c1 [Icotinib]	0.4	0	0	0.1	0.9	0.1	0	0.1
FC(F)(F)c1ccc(/C=C/c2nc(COc3ccc(CCCCn4ccnn4)cc3)co2)cc1 [Mubritinib]	0	2.3	0	0	0	9.3	6.4	15.5
O[C@H](C[C@H]1c2c(F)cccc2-c2cncn21)[C@H]1CC[C@H](O)CC1 [GDC-0919]	0.4	0	0	0.5	1.1	0.7	0.3	1.2
Cc1cc(Nc2cc(CN3CCOCC3)c3nc(C)c(Cc4ccc(Cl)cc4F)n3n2)n[nH]1 [Gandotinib]	3	5.9	0	3.6	2.2	6.9	4.8	4
CC[C@]12C=CCN3CC[C@@]4(c5cc([C@@]6(C(=O)OC)C[C@@H]7C[C@@H](C(C)(F)F)CN(Cc8c6[nH]c6ccccc86)C7)c(OC)cc5N(C)[C@H]4[C@@](O)(C(=O)OC)[C@@H]1OC(C)=O)[C@@H]32 [Vinflunine]	1	4.6	2.7	3.5	3.8	3.2	3.6	3.5
CN(C)Cc1ccc(S(=O)(=O)n2ccc(/C=C/C(=O)NO)c2)cc1 [Resminostat]	6.9	9.7	7.9	4.8	7.3	6.5	2.7	2.7
C[C@@H]1C=C2C(=O)O[C@@H]3CC[C@H](C1)[C@]23O [Galiellalactone]	2.9	6.9	0	5.8	0.7	5.2	8.4	5.1
O=C(Nc1cnn2ccc(N3CCC[C@@H]3c3cc(F)ccc3F)nc12)N1CC[C@H](O)C1 [Larotrectinib]	0	0	0	0	0	0	0	0
COc1ccc(C[C@H](NC(=O)[C@H](C)NC(=O)CN2CCOCC2)C(=O)N[C@@H](Cc2ccccc2)C(=O)C2(C)CO2)cc1 (stereo in doubt) [ONX-0914]	13.5	18.8	15.6	19.4	18.7	19.2	21.2	16.6
O=C(Nc1cccnc1)N1CCC(Cc2cccc(Oc3ccc(C(F)(F)F)cn3)c2)CC1 [PF-3845]	0	1	0	0	0	0.1	3.8	4
CC(C)(C)Cn1c(N)nc2ccc(-c3[nH]c(C(C)(C)C)nc3-c3ccc(F)cc3)nc21 [Ralimetinib]	5.4	2.9	0	2	0	6.1	0	1
CCc1c2c(nc3ccc(O)cc13)-c1cc3c(c(=O)n1C2)COC(=O)[C@]3(O)CC [SN-38]	11.8	42.7	17.3	17	19.7	24.6	19.7	8
COc1c(C)cnc(Cn2cnc3c(Cl)nc(N)nc32)c1C [BIIB021]	11.6	17.5	10.9	8.9	7.8	15.5	13.2	8.7
CCS(=O)(=O)c1cccc(-c2cc(C(=O)NC3CCN(C)CC3)c(C)c3[nH]c4ncc(C)cc4c23)c1 [TAK-901]	0.9	9.4	2.4	4.1	1.9	1.9	7.3	4
Cc1cn(-c2cc(NC(=O)c3ccc(C)c(Nc4nccc(-c5cnccn5)n4)c3)cc(C(F)(F)F)c2)cn1 [Radotinib]	5	0	0	0	2.6	8.6	0	0
Cc1c2oc3c(C)ccc(C(=O)N[C@@H]4C(=O)N[C@H](C(C)C)C(=O)N5CCC[C@H]5C(=O)N(C)CC(=O)N(C)[C@@H](C(C)C)C(=O)O[C@@H]4C)c3nc-2c(C(=O)N[C@@H]2C(=O)N[C@H](C(C)C)C(=O)N3CCC[C@H]3C(=O)N(C)CC(=O)N(C)[C@@H](C(C)C)C(=O)O[C@@H]2C)c(N)c1=O [Dactinomycin]	16.9	37.9	30.1	22.2	25.9	23.5	24.4	24.2
CCC(C)n1ncn(-c2ccc(N3CCN(c4ccc(OCC5COC(Cn6cncn6)(c6ccc(Cl)cc6Cl)O5)cc4)CC3)cc2)c1=O (stereo not given) [Itraconazole]	1.4	0	0	0	0	2.8	4.7	0.9
C[C@@H]1CN(CC(=O)Nc2ccc3c(c2)Cc2cccc(-c4cc(=O)cc(N5CCOCC5)o4)c2S3)C[C@H](C)O1	1.5	1.1	0	3.4	1	1.2	2.5	2.6
C=CC(=O)Nc1cc2c(Nc3ccc(F)c(Cl)c3)ncnc2cc1OCCCN1CCOCC1 [Canertinib]	8.4	7.5	4.9	3.5	6.3	9.1	8.7	6.5
